Source: patent US8828992B2, “Substituted azole derivatives, pharmaceutical composition containing the derivatives, and method for treating Parkinson's disease using the same” (priority 2009, dated 2014)
Where two headings read alike, the source gives them in different places.

Tests used:
[1] = test system: dopamine (DA) in the striatum of a MPTP-treated mouse; test: Combined administration with Levodopa group: dopamine in the striatum of MPTP-treated mouse (HPLC); type: in vivo; settings: compound 1 mg/kg PO co-administered with Levodopa group (Levodopa 50 mg/kg + Benzerazide 25 mg/kg IP); for Concentration of dopamine compared to a control group %, 1 hr: 1 hr after Levodopa; for Concentration of dopamine compared to a control group %, 3 hr: 3 hr after Levodopa
Protocol: MPTP (20 mg/kg, free base; Sigma, St. louis, Mo.) was administered to an 8 week old (20-25 g) male C57BL/6 test mouse intraperitoneally at the interval of 2 hours to construct a model.
In order to observe the effects of combined administration of a compound of the present invention and Levodopa, the compound of the present invention was dissolved in a solution containing 0.02 ml of dimethylsulfoxide (DMSO), 0.02 ml of Cremophor, 0.08 ml of polyethyleneglycol (PEG), and 0.08 ml of physiological saline. The resulting solution was orally administered at doses of 1 mg/kg one week after the MPTP treatment, and a Levodopa group containing Levodopa at 50 mg/kg and Benzerazide at 25 mg/kg was intraperitoneally administered 1 hour later.
A single administration of the Levodopa group in the following Table 4 indicates values resulting from a MPTP (toxin) treatment followed by an administration of the Levodopa group compared to the treatment results of a Levodopa single administration group of Levodopa and Benzerazide.
At 1 hour and 3 hours after administration of Levodopa, the animals were sacrificed by cervical vertebra dislocation and the brain tissues were immediately isolated from the animals. 0.5 me of iced solution for HPLC analysis (0.1 M perchloric acid and 0.1 mM EDTA) was added to a striatum obtained from the isolated brain tissues, and an ultrasonic grinder was used to prepare a tissue homogenate. The tissue homogenate was centrifuged at 12,000 rpm for 15 minutes, and its supernatant was filtered through nitrocellulose membrane filter (0.2 um, Millipore). For HPLC analysis, uBondapak™ C18 column (4.6×150 mm, particle size 10 μm: Shisheido, Japan) was used, the flow rate of the mobile phase (0.07 M monobasic sodium phosphate, 1 mM sodium octasulfonic acid, 0.1 uM EDTA, 5% acetonitrile, pH 3.2) was maintained at 0.5 me/min, and the electrode potential of the electrochemical detector (CouloChem III, ESA, Japan) was set at 350 mV.

[2] = test system: MPTP-induced mouse model; test: Tail suspension test in MPTP-induced mouse model of Parkinson's disease; type: in vivo; settings: administration concentration 10 (10 mg/kg), oral, 7 days after MPTP, % of control group (Sham); for response vs control in vivo at 10 mg/kg: Mus musculus, 168 h, read-out: Mobility (%)
Protocol: A. MPTP (1-methyl-4-phenyl-1,2,3,6-tetrahydropyridine) and drug treatment MPTP (20 mg/kg, free base; Sigma, St. louis, Mo.) was administered to an 8 week old (20-25 g) male C57BL/6 test mouse intraperitoneally three times a day at the interval of 2 hours to construct a model (Breidert et al., 2002; Lichuan Yang, Shuei Sugama, Jason W. Chirichigno, Jason Gregorio, Stefan Lorenzl, Dong H. Shin, Susan E. Browne, Yoshinori Shimizu, Tong H. Joh, M. Flint Beal, l and David S. Alber. (2003) Minocycline Enhances MPTP Toxicity to Dopaminergic Neurons. J Neurosci Res. 74:278-285). In order to observe the protective effects of the compound as a candidate drug, the compound was dissolved in a solution containing 10% dimethylsulfoxide (DMSO), 10% Cremophor, and 40% polyethyleneglycol (PEG), […] treatment. Rasagiline as a control drug was also dissolved in the same solution, and the resulting solution was administered at the same doses in the same manner as above. A control group (Sham) in which MPTP was not administered was constructed by intraperitoneally administering saline solution to the group instead of MPTP in the same manner as above and orally administering the same solution 1 hour before and after PBS treatment.
A tail suspension test was performed in order to measure the induction degree of behavioral dysfunctions in accordance with administration of MPTP and a drug. At 7 days after administration of the drug, a round stainless steel rod (width: 1 cm) was affixed to a cage (width: 16 cm, height: 40 cm) 35 cm above from the surface shielded by black wooden structures in the left and right sides to perform experiments. The time for which the animal moved for a total period of 6 minutes was measured in seconds to evaluate the drug action.
Mobility refers to an expression of the measurement of the time for which the animal moved with its tail hung high as a percentage compared to the measurement of a control group.

[3] = target: T1, Monoamineoxidase B type human-derived enzyme (Homo sapiens, UniProt P27338); test: Inhibitory effects on the activity of MAO-B (Amplex Red fluorescence, benzylamine substrate); type: biochemical; settings: for inhibition at 0.01 µM: read-out: Inhibitory effects (%) on the activity of MAO-B
T1 sequence (P27338 1-520): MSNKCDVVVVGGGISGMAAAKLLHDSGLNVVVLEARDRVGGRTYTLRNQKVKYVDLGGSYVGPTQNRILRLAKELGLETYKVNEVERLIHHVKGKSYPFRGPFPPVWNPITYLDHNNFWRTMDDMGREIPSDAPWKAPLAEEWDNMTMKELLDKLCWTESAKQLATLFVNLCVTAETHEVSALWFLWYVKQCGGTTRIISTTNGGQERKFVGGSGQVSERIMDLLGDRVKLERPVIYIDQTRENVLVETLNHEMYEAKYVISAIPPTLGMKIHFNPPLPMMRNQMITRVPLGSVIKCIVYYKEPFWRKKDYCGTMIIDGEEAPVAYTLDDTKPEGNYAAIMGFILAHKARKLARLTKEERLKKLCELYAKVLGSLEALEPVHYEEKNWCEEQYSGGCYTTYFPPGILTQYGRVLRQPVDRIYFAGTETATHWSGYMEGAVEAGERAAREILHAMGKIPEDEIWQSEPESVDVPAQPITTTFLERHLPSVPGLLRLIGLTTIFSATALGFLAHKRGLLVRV
Summary of the method: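 Human MAO-B, diluted 1:200 in 0.05 M sodium phosphate pH 7.4, was pre-incubated with compound for 30 min. It was then mixed 1:1 with working buffer holding 400 μM Amplex Red, 2 U/ml HRP and 2 mM benzylamine (working-buffer levels). Fluorescence (Ex 563/Em 587 nm) was read over 30 min.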

Row | Molecule | Concentration of dopamine compared to a control group %, 1 hr [1] | Concentration of dopamine compared to a control group %, 3 hr [1] | response vs control in vivo at 10 mg/kg [2] | inhibition at 0.01 µM [3] | inhibition at 0.01 µM ([3]; treatment concentration 10 nM) | Mobility (%) [2] | Inhibitory effects (%) on the activity of MAO-B ([3]; treatment concentration 10 nM)
1 | NC(=O)OCc1cc(-c2ccc(OCc3ccccc3)cc2)ns1 [Example 3, carbamic acid 3-(4-benzyloxy-phenyl)-isothiazol-5-ylmethyl ester] | 173.43% | 39.3% | 70.3% | 95.2% |  |  | 
2 | NC(=O)OCc1cc(-c2ccc(OCc3ccccc3F)cc2)no1 [Example 11, carbamic acid 3-[4-(2-fluoro-benzyloxy)-phenyl]-isoxazol-5-ylmethyl ester] |  |  | 82.2% |  | 101% |  | 
3 | NC(=O)OCc1cc(-c2ccc(OCc3c(F)cccc3F)cc2)no1 [Example 14, carbamic acid 3-[4-(2,6-difluoro-benzyloxy)-phenyl]-isoxazol-5-ylmethyl ester] |  |  | 75.3% |  | 96% |  | 
4 | CCCCOc1ccc(-c2cc(COC(N)=O)on2)cc1 [Example 43, carbamic acid 3-(4-butoxy-phenyl)-isoxazol-5-ylmethyl ester] |  |  | 71% | 96.8% |  |  | 
5 | NC(=O)OCc1cc(-c2ccc(OCSC(F)(F)F)cc2)no1 [Example 58, carbamic acid 3-(4-trifluoromethylsulfanylmethoxy-phenyl)-isoxazol-5-ylmethyl ester] |  |  | 98.9% | 88.1% |  |  | 
6 | NC(=O)OCc1cc(-c2ccc(OCc3cccnc3)cc2)no1 [Example 66, Carbamic acid 3-[4-(pyridin-3-ylmethoxy)-phenyl]-isoxazol-5-ylmethyl ester] |  |  | 74.9% | 87.3% |  |  | 
7 | Cc1noc(C)c1COc1ccc(-c2cc(COC(N)=O)on2)cc1 [Example 72, carbamic acid 3-[4-(3,5-dimethyl-isoxazol-4-ylmethoxy)-phenyl]-isoxazol-5-ylmethyl ester] |  |  | 91.4% |  | 87.9% |  | 
8 | NC(=O)OCc1cc(-c2ccc(NCc3ccccc3)cc2)no1 [Example 74, Carbamic acid 3-(4-benzylamino-phenyl)-isoxazol-5-ylmethyl ester] | 153.7% | 74.7% | 96.9% | 84.5% |  |  | 
9 | NC(=O)OCc1cc(-c2ccc(NCc3c(F)cccc3F)cc2)no1 [Example 79, Carbamic acid 3-[4-(2,6-difluoro-benzylamino)-phenyl]-isoxazol-5-ylmethyl ester] | 87.6% | 115.2% | 99.4% |  | 84.6% |  | 
10 | NC(=O)OCc1cc(-c2ccc(NCc3ccc(F)cc3F)cc2)no1 [Example 81, Carbamic acid 3-[4-(2,4-difluoro-benzylamino)-phenyl]-isoxazol-5-ylmethyl ester] |  |  | 72.6% |  | 91.4% |  | 
11 | NC(=O)OCc1cc(-c2ccc(NCc3ccc(F)c(F)c3)cc2)no1 [Example 84, Carbamic acid 3-[4-(3,4-difluoro-benzylamino)-phenyl]-isoxazol-5-ylmethyl ester] | 153.7% | 144.3% | 97.7% |  | 88.5% |  | 
12 | Cc1cccc(CNc2ccc(-c3cc(COC(N)=O)on3)cc2)c1 [Example 101, Carbamic acid 3-[4-(3-methyl-benzylamino)-phenyl]-isoxazol-5-ylmethyl ester] |  |  | 78.3% |  | 80.5% |  | 
13 | COc1ccccc1CNc1ccc(-c2cc(COC(N)=O)on2)cc1 [Example 104, Carbamic acid 3-[4-(2-methoxy-benzylamino)-phenyl]-isoxazol-5-ylmethyl ester] |  |  | 82% |  | 89.1% |  | 
14 | NC(=O)OCc1cc(-c2ccc(NCc3cccs3)cc2)no1 [Example 110, carbamic acid 3-{4-[(thiophen-2-ylmethyl)-amino]-phenyl}-isoxazol-5-ylmethyl ester] |  |  | 80.7% | 80.8% |  |  | 
15 | NC(=O)OCc1cc(-c2ccc(NCc3ccoc3)cc2)no1 [Example 111, carbamic acid 3-{4-[(furan-3-ylmethyl)-amino]-phenyl}-isoxazol-5-ylmethyl ester] |  |  | 78.8% | 69% |  |  | 
16 | Fc1cccc(COc2ccc(-c3cc(Cn4ccnc4)on3)cc2)c1 [Example 142, 3-[4-(3-fluoro-benzyloxy)-phenyl]-5-imidazol-1-ylmethyl-isoxazole] | 174.5% | 65.5% | 101% |  | 89.5% |  | 
17 | c1ccc(COc2ccc(-c3cc(CN4CCCC4)on3)cc2)cc1 [Example 148, 3-(4-benzyloxy-phenyl)-5-pyrrolidin-1-ylmethyl-isoxazole] |  |  | 95.9% |  | 79% |  | 
18 | [carbamic acid 3-(4-methylsulfanylmethoxy-phenyl)-isoxazol-5-ylmethyl ethyl ester [Example 48] |  |  |  |  |  | 74.6% | 48.4%
